Experimental data: ChEMBL document CHEMBL3525953, “In vitro cytochrome P450-mediated metabolism of exemestane” (Drug Metab Dispos, 2011)

Assays:
Format in all cases: ADME
Cytochrome P450 4A11 = target: T1, Cytochrome P450 4A11 (Homo sapiens, UniProt Q02928); experiment: Drug metabolism assessed as human recombinant CYP4A11-mediated 17-hydroexemestane formation rate per pmol of enzyme at 10 uM after 10 mins
T1 sequence (Q02928 whole entry): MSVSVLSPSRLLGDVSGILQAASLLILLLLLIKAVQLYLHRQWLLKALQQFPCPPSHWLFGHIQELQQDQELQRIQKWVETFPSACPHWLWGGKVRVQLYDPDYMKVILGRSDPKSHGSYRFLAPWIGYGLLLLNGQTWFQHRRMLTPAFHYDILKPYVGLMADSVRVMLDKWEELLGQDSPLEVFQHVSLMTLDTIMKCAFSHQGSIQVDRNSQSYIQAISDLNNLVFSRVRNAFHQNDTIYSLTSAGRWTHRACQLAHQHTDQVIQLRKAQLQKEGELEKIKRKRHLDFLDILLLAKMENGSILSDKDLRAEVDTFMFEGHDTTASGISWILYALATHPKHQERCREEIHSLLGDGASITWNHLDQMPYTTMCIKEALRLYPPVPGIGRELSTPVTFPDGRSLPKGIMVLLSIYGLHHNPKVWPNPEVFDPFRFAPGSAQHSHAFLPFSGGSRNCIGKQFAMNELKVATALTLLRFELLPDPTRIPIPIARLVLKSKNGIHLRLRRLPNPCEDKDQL

Cytochrome P450 2C19 = Cytochrome P450 2C19 (Homo sapiens, UniProt P33261); experiment: Drug metabolism assessed as human recombinant CYP2C19-mediated 17-hydroexemestane formation rate per pmol of enzyme at 10 uM after 10 mins
Cytochrome P450 2C19, sequence (P33261 whole entry): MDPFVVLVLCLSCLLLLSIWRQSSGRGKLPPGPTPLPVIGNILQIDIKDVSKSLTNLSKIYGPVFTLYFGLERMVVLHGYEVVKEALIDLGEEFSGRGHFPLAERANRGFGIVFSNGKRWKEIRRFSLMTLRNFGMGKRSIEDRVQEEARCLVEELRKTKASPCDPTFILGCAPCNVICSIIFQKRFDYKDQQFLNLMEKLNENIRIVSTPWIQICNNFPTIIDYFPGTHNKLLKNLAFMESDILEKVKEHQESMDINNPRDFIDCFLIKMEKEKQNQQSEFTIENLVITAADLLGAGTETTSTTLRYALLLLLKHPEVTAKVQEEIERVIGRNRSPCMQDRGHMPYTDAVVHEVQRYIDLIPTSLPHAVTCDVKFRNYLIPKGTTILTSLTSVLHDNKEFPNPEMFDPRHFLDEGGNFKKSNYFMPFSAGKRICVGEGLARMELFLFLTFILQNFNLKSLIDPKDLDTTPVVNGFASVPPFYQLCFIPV

Liver microsome [1] = experiment: Drug metabolism in human liver microsomes assessed as 17-hydroexemestane formation at 10 uM after 10 mins by LC-MS/MS analysis
Cytochrome P450 2A6 = target: T2, Cytochrome P450 2A6 (Homo sapiens, UniProt P11509); experiment: Drug metabolism assessed as human recombinant CYP2A6-mediated 17-hydroexemestane formation rate per pmol of enzyme at 10 uM after 10 mins
T2 sequence (P11509 whole entry): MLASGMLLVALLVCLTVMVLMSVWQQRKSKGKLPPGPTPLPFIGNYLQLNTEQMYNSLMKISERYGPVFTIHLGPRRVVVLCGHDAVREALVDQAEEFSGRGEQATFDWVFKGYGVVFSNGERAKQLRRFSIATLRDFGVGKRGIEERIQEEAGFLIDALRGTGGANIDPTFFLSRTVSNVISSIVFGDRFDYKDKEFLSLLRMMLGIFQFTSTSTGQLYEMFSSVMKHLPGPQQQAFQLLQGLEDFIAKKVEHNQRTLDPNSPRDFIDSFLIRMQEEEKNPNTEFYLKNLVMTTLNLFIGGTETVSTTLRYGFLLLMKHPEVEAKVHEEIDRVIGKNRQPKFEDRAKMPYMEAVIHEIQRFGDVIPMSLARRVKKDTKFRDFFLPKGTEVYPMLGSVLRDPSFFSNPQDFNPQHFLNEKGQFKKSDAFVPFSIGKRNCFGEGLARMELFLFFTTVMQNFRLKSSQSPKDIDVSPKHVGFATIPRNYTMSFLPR

Cytochrome P450 3A5 = Cytochrome P450 3A5 (Homo sapiens, UniProt P20815); experiment: Drug metabolism assessed as human recombinant CYP3A5-mediated 17-hydroexemestane formation rate per pmol of enzyme at 10 uM after 10 mins
Cytochrome P450 3A5, sequence (P20815 whole entry): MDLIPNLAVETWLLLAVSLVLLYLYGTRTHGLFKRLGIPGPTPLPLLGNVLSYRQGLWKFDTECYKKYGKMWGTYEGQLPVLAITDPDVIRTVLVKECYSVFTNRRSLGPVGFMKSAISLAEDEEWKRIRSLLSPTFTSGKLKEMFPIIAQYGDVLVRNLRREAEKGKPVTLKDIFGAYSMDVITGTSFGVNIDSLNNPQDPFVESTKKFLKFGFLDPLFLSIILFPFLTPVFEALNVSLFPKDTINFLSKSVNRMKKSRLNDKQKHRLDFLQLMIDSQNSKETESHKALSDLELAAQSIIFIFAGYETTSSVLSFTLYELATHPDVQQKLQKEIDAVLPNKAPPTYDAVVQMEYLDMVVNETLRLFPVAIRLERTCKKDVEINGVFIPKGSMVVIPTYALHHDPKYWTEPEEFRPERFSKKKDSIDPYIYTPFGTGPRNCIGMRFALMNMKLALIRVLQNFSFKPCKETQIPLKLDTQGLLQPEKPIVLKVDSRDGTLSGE

Liver microsome [2] = experiment: Drug metabolism in human liver microsomes assessed as 17-hydroexemestane formation after 10 mins by Michaelis-Menten saturation curve analysis
Liver microsome [3] = experiment: Drug metabolism in human liver microsomes assessed as retention time treated with 300 uM of exemestane after 10 mins by HPLC with UV analysis
Cytochrome P450 2B6 [4] = target: T3, Cytochrome P450 2B6 (Homo sapiens, UniProt P20813); experiment: Drug metabolism assessed as human recombinant CYP2B6-mediated 17-hydroexemestane formation rate per pmol of enzyme at 10 uM after 10 mins
T3 sequence (P20813 whole entry): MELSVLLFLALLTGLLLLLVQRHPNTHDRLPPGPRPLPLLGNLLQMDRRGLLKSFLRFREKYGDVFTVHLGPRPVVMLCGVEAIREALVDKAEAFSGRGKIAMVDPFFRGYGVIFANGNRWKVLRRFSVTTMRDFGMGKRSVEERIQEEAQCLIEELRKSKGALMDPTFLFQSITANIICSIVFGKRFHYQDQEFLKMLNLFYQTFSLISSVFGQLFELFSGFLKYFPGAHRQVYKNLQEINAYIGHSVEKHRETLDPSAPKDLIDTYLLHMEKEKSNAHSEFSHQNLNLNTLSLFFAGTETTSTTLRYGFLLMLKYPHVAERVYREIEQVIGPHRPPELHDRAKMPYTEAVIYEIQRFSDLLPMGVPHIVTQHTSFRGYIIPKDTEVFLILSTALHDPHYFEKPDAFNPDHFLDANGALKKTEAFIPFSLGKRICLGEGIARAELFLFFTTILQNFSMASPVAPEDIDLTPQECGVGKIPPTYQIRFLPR

Cytochrome P450 3A4 = Cytochrome P450 3A4 (Homo sapiens, UniProt P08684); experiment: Drug metabolism assessed as human recombinant CYP3A4-mediated 17-hydroexemestane formation rate per pmol of enzyme at 10 uM after 10 mins
Cytochrome P450 3A4, sequence (P08684 whole entry): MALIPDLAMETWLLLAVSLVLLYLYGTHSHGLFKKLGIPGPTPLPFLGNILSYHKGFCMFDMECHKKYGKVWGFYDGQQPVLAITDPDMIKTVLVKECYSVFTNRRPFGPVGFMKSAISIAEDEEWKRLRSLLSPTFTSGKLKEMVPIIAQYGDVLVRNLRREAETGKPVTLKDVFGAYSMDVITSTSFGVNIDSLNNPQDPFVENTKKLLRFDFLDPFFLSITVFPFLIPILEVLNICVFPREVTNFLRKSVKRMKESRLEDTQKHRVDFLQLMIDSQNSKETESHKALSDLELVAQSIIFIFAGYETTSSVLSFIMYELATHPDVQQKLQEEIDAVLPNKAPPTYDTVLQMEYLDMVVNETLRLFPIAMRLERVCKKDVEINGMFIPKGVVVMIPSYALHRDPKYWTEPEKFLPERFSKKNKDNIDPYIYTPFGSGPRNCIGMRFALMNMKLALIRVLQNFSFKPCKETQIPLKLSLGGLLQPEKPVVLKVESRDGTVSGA

Cytochrome P450 2B6 [5] = target: T3, Cytochrome P450 2B6; experiment: Drug metabolism assessed as human recombinant CYP2B6-mediated 17-hydroexemestane formation at 10 uM after 10 mins by Michaelis-Menten saturation curve analysis; conditions: recombinant enzyme
Cytochrome P450 2C9 = Cytochrome P450 2C9 (Homo sapiens, UniProt P11712); experiment: Drug metabolism assessed as human recombinant CYP2C9-mediated 17-hydroexemestane formation rate per pmol of enzyme at 10 uM after 10 mins
Cytochrome P450 2C9, sequence (P11712 whole entry): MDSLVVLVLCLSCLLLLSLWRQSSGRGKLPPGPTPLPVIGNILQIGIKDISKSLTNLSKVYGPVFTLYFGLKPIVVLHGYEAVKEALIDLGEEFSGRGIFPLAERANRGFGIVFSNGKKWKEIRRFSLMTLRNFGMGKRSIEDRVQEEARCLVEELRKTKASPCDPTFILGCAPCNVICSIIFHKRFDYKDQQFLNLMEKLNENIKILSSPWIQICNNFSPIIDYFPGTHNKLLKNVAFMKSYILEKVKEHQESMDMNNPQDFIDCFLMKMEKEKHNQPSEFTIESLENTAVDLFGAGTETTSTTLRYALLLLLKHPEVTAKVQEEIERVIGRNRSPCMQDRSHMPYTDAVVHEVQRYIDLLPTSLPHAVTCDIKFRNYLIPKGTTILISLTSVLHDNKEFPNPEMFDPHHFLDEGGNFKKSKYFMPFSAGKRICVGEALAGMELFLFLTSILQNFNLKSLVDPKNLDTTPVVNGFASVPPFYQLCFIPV

Cytochrome P450 1A2 = target: T4, Cytochrome P450 1A2 (Homo sapiens, UniProt P05177); experiment: Drug metabolism assessed as human recombinant CYP1A2-mediated 17-hydroexemestane formation at 10 uM after 10 mins by Michaelis-Menten saturation curve analysis; conditions: recombinant enzyme
T4 sequence (P05177 whole entry): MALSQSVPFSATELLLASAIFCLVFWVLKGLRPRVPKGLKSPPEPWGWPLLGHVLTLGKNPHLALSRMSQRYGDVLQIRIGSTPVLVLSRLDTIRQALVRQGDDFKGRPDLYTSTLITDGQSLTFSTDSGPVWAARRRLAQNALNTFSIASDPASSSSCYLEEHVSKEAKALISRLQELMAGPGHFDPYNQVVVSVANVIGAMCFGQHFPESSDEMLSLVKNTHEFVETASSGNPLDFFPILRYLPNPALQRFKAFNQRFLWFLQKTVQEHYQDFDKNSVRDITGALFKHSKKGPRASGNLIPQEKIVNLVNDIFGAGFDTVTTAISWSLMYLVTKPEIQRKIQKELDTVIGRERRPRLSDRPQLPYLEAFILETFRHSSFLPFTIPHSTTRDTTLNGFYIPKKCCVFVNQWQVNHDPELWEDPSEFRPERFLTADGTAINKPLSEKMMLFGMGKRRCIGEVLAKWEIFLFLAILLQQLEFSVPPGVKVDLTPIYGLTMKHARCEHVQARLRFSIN

For `C=C1C[C@@H]2[C@H](CC[C@]3(C)C(O)CC[C@@H]23)[C@@]2(C)C=CC(=O)C=C12` (some centres undefined), the Drug metabolism (Cytochrome P450 4A11) was 0.48 pmol/min, the Drug metabolism (Cytochrome P450 2C19) was “metabolite_not_detected” and the “Vmax(app)” value (Liver microsome [1]) was 137.32 pmol/mg/min. The Drug metabolism (Cytochrome P450 2A6) was 0.51 pmol/min, the Drug metabolism (Cytochrome P450 3A5) was 0.21 pmol/min and the “Vmax(app)” value (Liver microsome [2]) was 222.4 pmol/mg/min. The Km (Liver microsome [2]; read-out: Km(app)) was 13.7 µM, the Retention_time (Liver microsome [3]) was 13.1 min and the Drug metabolism (Cytochrome P450 2B6 [4]) was 0.3 pmol/min. The Drug metabolism (Cytochrome P450 3A4) was 0.17 pmol/min, the “Vmax(app)” value (Cytochrome P450 2B6 [5]) was 3.9 pmol/mg/min and the Km (Cytochrome P450 2B6 [5]; read-out: Km(app)) was 177 µM. The Drug metabolism (Cytochrome P450 2C9) was “metabolite_not_detected” and the Drug metabolism (Cytochrome P450 1A2) was “metabolite_detected”.
